Test results from patent US8889874B2, “Imidazolone-chalcone derivatives as potential anticancer agent and process for the preparation thereof” (Council of Scientific and Industrial Research, priority 2010, dated 2014).
Where two headings read alike, the source gives them in different places.

Legend:
Assay type in all cases: cell-based, human
[1] = system: U251 (CNS); test: NCI anticancer screen, SRB assay, 48 h; details: Homo sapiens
Method: (§1) Some of biological activity studies were carried out at the National Cancer Institute (NCI), Maryland, USA.
(§2) The compounds were evaluated for anticancer activity against fifty three human cancer cells derived from nine cancer types (leukemia cell line, non-small-cell lung cell line, colon cell line, CNS cell line, melanoma cell line, ovarian cell line, prostate cell line, and breast cancer cell line) as shown in Table 1. For each compound, dose response curves for each cell line were measured at a minimum of five concentrations at 10 fold dilutions. A protocol of 48 h continuous drug exposure was used and a sulforhodamine B (SRB) protein assay was used to estimate cell viability or growth.

[2] = system: LOX IMVI (melanoma); test: NCI anticancer screen, SRB assay, 48 h; details: Homo sapiens
Method: as §1, §2

[3] = system: HOP-92 (non-small cell lung); test: NCI anticancer screen, SRB assay, 48 h; details: Homo sapiens
Method: as §1, §2

[4] = system: SW-620 (colon); test: NCI anticancer screen, SRB assay, 48 h; details: Homo sapiens
Method: as §1, §2

[5] = system: BT-549 (breast); test: NCI anticancer screen, SRB assay, 48 h; details: Homo sapiens
Method: as §1, §2

[6] = system: 786-0 (renal); test: NCI anticancer screen, SRB assay, 48 h; details: Homo sapiens
Method: as §1, §2

[7] = system: SF-295 (CNS); test: NCI anticancer screen, SRB assay, 48 h; details: Homo sapiens
Method: as §1, §2

[8] = system: MCF7 (breast); test: NCI anticancer screen, SRB assay, 48 h; details: Homo sapiens
Method: as §1, §2

[9] = system: HCC-2998 (colon); test: NCI anticancer screen, SRB assay, 48 h; details: Homo sapiens
Method: as §1, §2

[10] = system: TK-10 (renal); test: NCI anticancer screen, SRB assay, 48 h; details: Homo sapiens
Method: as §1, §2

[11] = system: K-562 (leukemia cell line); test: NCI anticancer screen, SRB assay, 48 h; details: Homo sapiens
Method: as §1, §2

[12] = system: NCI-H460 (non-small cell lung); test: NCI anticancer screen, SRB assay, 48 h; details: Homo sapiens
Method: as §1, §2

[13] = system: OVCAR-5 (ovarian); test: NCI anticancer screen, SRB assay, 48 h; details: Homo sapiens
Method: as §1, §2

[14] = system: MDA-MB-231/ATCC (breast); test: NCI anticancer screen, SRB assay, 48 h; details: Homo sapiens
Method: as §1, §2

[15] = system: SK-MEL-5 (melanoma); test: NCI anticancer screen, SRB assay, 48 h; details: Homo sapiens
Method: as §1, §2

[16] = system: PC-3 (prostate); test: NCI anticancer screen, SRB assay, 48 h; details: Homo sapiens
Method: as §1, §2

[17] = system: SF-539 (CNS); test: NCI anticancer screen, SRB assay, 48 h; details: Homo sapiens
Method: as §1, §2

[18] = system: SF-268 (CNS); test: NCI anticancer screen, SRB assay, 48 h; details: Homo sapiens
Method: as §1, §2

[19] = system: SN12C (renal); test: NCI anticancer screen, SRB assay, 48 h; details: Homo sapiens, SN12C
Method: as §1, §2

[20] = system: HS 578T (breast); test: NCI anticancer screen, SRB assay, 48 h; details: Homo sapiens
Method: as §1, §2

[21] = system: MDA-MB-435 (melanoma); test: NCI anticancer screen, SRB assay, 48 h; details: Homo sapiens
Method: as §1, §2

[22] = system: HCT-15 (colon); test: NCI anticancer screen, SRB assay, 48 h; details: Homo sapiens
Method: as §1, §2

[23] = system: Colon cancer cell lines; test: NCI anticancer screen, SRB assay, panel summary; details: for GI50: Homo sapiens
Method: as §1, §2

[24] = system: Melanoma cancer cell lines; test: NCI anticancer screen, SRB assay, panel summary; details: for GI50: Homo sapiens
Method: as §1, §2

[25] = system: Non-small cell lung cancer cell lines; test: NCI anticancer screen, SRB assay, panel summary; details: Homo sapiens
Method: as §1, §2

[26] = system: Leukemia cancer cell lines; test: NCI anticancer screen, SRB assay, panel summary; details: Homo sapiens
Method: as §1, §2

[27] = system: Breast cancer cell lines; test: NCI anticancer screen, SRB assay, panel summary; details: Homo sapiens
Method: as §1, §2

[28] = system: Renal cancer cell lines; test: NCI anticancer screen, SRB assay, panel summary; details: Homo sapiens
Method: as §1, §2

[29] = system: CNS cancer cell lines; test: NCI anticancer screen, SRB assay, panel summary; details: for GI50: Homo sapiens
Method: as §1, §2

[30] = system: Prostate cancer cell lines; test: NCI anticancer screen, SRB assay, panel summary
Method: as §1, §2

[31] = system: Ovarian cancer cell lines; test: NCI anticancer screen, SRB assay, panel summary; details: Homo sapiens
Method: as §1, §2

[32] = 48 h exposure, SRB, read-out: GI50
[33] = read-out: pGI50 (-log of molar concentration causing 50% inhibition of net cell growth) (converted)

For `O=C(/C=C/c1cccc(O)c1)c1cccc(-n2cc(-c3ccc4ccccc4c3)[nH]c2=O)c1` [12b, 1-3-[(E)-3-(3-hydroxyphenyl)-2-propenoyl]phenyl-4-(2-naphthyl)-2,3-dihydro-1H-2-imidazolone], the GI50 ([1]; U-251, 48 h exposure, SRB, read-out: GI50) was 1090 nM, the GI50 ([1]; U-251, read-out: pGI50 (-log of molar concentration causing 50% inhibition of net cell growth) (converted)) was 1100 nM and the GI50 [2, 32] was 850 nM. For the same molecule, the GI50 [2, 33] was 851 nM, the GI50 [3, 32] was 510 nM and the GI50 [3, 33] was 513 nM. The GI50 [4, 32] was 220 nM, the GI50 [4, 33] was 219 nM and the GI50 [5, 32] was 1890 nM. The GI50 [5, 33] was 1910 nM, the GI50 [6, 32] was 1740 nM and the GI50 [6, 33] was 1740 nM. The GI50 [7, 32] was 1440 nM, the GI50 [7, 33] was 1450 nM and the GI50 [8, 32] was 470 nM. For the same molecule, the GI50 [8, 33] was 468 nM, the GI50 [9, 32] was 2130 nM and the GI50 [9, 33] was 2140 nM. For the same molecule, the GI50 [10, 32] was 3.45 µM, the GI50 [10, 33] was 3.47 µM and the GI50 ([11]; K562, 48 h exposure, SRB, read-out: GI50) was 1430 nM. The GI50 ([11]; K562, read-out: pGI50 (-log of molar concentration causing 50% inhibition of net cell growth) (converted)) was 1450 nM, the GI50 [12, 32] was 1670 nM and the GI50 [12, 33] was 1660 nM. For the same molecule, the GI50 [13, 32] was 1890 nM, the GI50 [13, 33] was 1910 nM and the GI50 [14, 32] was 1660 nM. The GI50 [14, 33] was 1660 nM, the GI50 [15, 32] was 1160 nM and the GI50 [15, 33] was 1150 nM. The GI50 ([16]; PC-3, read-out: pGI50 (-log of molar concentration causing 50% inhibition of net cell growth) (converted)) was 1860 nM, the GI50 ([16]; one prostate cancer cell line (PC-3), exposure at least 48 hrs, read-out: GI50) was 1850 nM and the GI50 [17, 32] was 1550 nM. It also gave a GI50 [17, 33] of 1550 nM, a GI50 [18, 32] of 1730 nM and a GI50 [18, 33] of 1740 nM. The GI50 ([19]; SN 12C, read-out: pGI50 (-log of molar concentration causing 50% inhibition of net cell growth) (converted)) was 1450 nM, the GI50 [19, 32] was 1440 nM and the GI50 [20, 32] was 2010 nM. It also gave a GI50 [20, 33] of 2000 nM, a GI50 [21, 32] of 1710 nM and a GI50 [21, 33] of 1700 nM. The GI50 [22, 32] was 1560 nM, the GI50 [22, 33] was 1550 nM and the “mean graph midpoint (MG_MID) of Log10 LC50” value ([23]; Colon panel, log of concentration leading to 50% net cell death) was 5.08. For the same molecule, the GI50 ([23]; Colon panel, log of concentration in mol/L causing 50% inhibition of net cell growth, read-out: mean graph midpoint (MG_MID) of Log10 GI50 (converted)) was 1020 nM, the GI50 ([23]; seven colon cancer cell lines, exposure at least 48 hrs, read-out: GI50, range over the panel) was 220 to 2130 nM and the GI50 ([24]; Melanoma panel, log of concentration in mol/L causing 50% inhibition of net cell growth, read-out: mean graph midpoint (MG_MID) of Log10 GI50 (converted)) was 1950 nM. For the same molecule, the GI50 ([24]; nine melanoma cancer cell lines, exposure at least 48 hrs, read-out: GI50, range over the panel) was 850 to 4130 nM, the “mean graph midpoint (MG_MID) of Log10 LC50” value ([24]; Melanoma panel, log of concentration leading to 50% net cell death) was 4.62 and the GI50 ([25]; Non-small cell lung panel, log of concentration in mol/L causing 50% inhibition of net cell growth, read-out: mean graph midpoint (MG_MID) of Log10 GI50 (converted)) was 1740 nM. For the same molecule, the LC50 ([25]; Non-small cell lung panel, log of concentration leading to 50% net cell death, read-out: mean graph midpoint (MG_MID) of Log10 LC50 (converted)) was 20 µM, the GI50 ([25]; nine non-small cell lung cancer cell lines, exposure at least 48 hrs, read-out: GI50, range over the panel) was 510 to 3380 nM and the GI50 ([26]; Leukemia panel, log of concentration in mol/L causing 50% inhibition of net cell growth, read-out: mean graph midpoint (MG_MID) of Log10 GI50 (converted)) was 1550 nM. The LC50 ([26]; Leukemia panel, log of concentration leading to 50% net cell death, read-out: mean graph midpoint (MG_MID) of Log10 LC50 (converted)) was at least 100 µM, the GI50 ([26]; two leukemia cancer cell lines (RPMI-8226 and K-562), exposure at least 48 hrs, read-out: GI50, range over the panel) was 1430 to 1670 nM and the GI50 ([27]; Breast panel, log of concentration in mol/L causing 50% inhibition of net cell growth, read-out: mean graph midpoint (MG_MID) of Log10 GI50 (converted)) was 1290 nM. For the same molecule, the LC50 ([27]; Breast panel, log of concentration leading to 50% net cell death, read-out: mean graph midpoint (MG_MID) of Log10 LC50 (converted)) was 31.6 µM, the GI50 ([27]; five breast cancer cell lines, exposure at least 48 hrs, read-out: GI50, range over the panel) was 470 to 2010 nM and the GI50 ([28]; Renal panel, log of concentration in mol/L causing 50% inhibition of net cell growth, read-out: mean graph midpoint (MG_MID) of Log10 GI50 (converted)) was 8.91 µM. The LC50 ([28]; Renal panel, log of concentration leading to 50% net cell death, read-out: mean graph midpoint (MG_MID) of Log10 LC50 (converted)) was 10.2 µM, the GI50 ([28]; eight renal cancer cell lines, exposure at least 48 hrs, read-out: GI50, range over the panel) was 1.26 to 3.45 µM and the “mean graph midpoint (MG_MID) of Log10 LC50” value ([29]; CNS panel, log of concentration leading to 50% net cell death) was 5.04. The GI50 ([29]; CNS panel, log of concentration in mol/L causing 50% inhibition of net cell growth, read-out: mean graph midpoint (MG_MID) of Log10 GI50 (converted)) was 1480 nM, the GI50 ([29]; six CNS cancer cell lines, exposure at least 48 hrs, read-out: GI50, range over the panel) was 1090 to 1880 nM and the GI50 ([30]; Homo sapiens, log of concentration in mol/L causing 50% inhibition of net cell growth, read-out: mean graph midpoint (MG_MID) of Log10 GI50 (converted)) was 1860 nM. For the same molecule, the LC50 ([30]; Homo sapiens, log of concentration leading to 50% net cell death, read-out: mean graph midpoint (MG_MID) of Log10 LC50 (converted)) was 79.4 µM, the “mean graph midpoint (MG_MID) of Log10 TGI” value ([30]; log of concentration resulting in total inhibition of net cell growth) was 5.10 and the GI50 ([31]; Ovarian panel, log of concentration in mol/L causing 50% inhibition of net cell growth, read-out: mean graph midpoint (MG_MID) of Log10 GI50 (converted)) was 1820 nM. It also gave an LC50 ([31]; Ovarian panel, log of concentration leading to 50% net cell death, read-out: mean graph midpoint (MG_MID) of Log10 LC50 (converted)) of 25.7 µM and a GI50 ([31]; six ovarian cancer cell lines, exposure at least 48 hrs, read-out: GI50, range over the panel) of 1330 to 2330 nM.
